According to PMC6384650, “Phenolic Compounds of Catalpa speciosa, Taxus cuspidata, and Magnolia acuminata have Antioxidant and Anticancer Activity” (Molecules, 2019):
In brackets after ≈: the same amount, converted by molar mass. Counter-ions that a name gives are not always drawn.

Key:
[1] = DPPH free radical scavenging assay; settings: 30 min incubation, absorbance 517 nm
Description: (§1) The DPPH and β-carotene-linoleic acid assays were used in the Faculty of Food and Agricultural Sciences, King Saud University to determine the antioxidant activities of bark extract. For the DPPH assay, the samples were incubated for 30 min and the absorbance of the samples at 517 nm was measured. In the β-carotene-linoleic acid assay, the absorbance of the samples at 470 nm was measured. […] A standard antioxidant (butylated hydroxytoluene, BHT) was used as a positive control and the inhibition by the concentration of each sample was compared with that of the BHT and blank. The antioxidant activities were repeated twice in duplicates.

[2] = β-carotene-linoleic acid assay; settings: absorbance 470 nm
Description: as §1

HEK-293 cells = experiment: MTT antiproliferative assay, normal HEK-293 cells; type: cell-based; settings: 2 days incubation; for IC50: Homo sapiens, HEK293, 48 h, read-out: In vitro antiproliferative activity IC50, HEK-293
Description: (§2) The antiproliferative activity of bark extracts was examined in different cancer cells lines (HeLa, MCF-7, Jurkat, HT-29, and T24) and in normal cells (HEK-293) by using a modified 3-(4,5-dimethylthiazol-2-yl)-2,5-diphenyltetrazolium bromide (MTT) method. The cells were grown in 75 cm^2 flasks in MEM supplemented with 10% FBS, 17.8 mM NaHCO3, 0.1 mM non-essential amino acids, and 1 mM sodium pyruvate. They were seeded into 96-well plates at a density of 4 × 10^−4 per well, left to stand in 270 µL of medium, and incubated in an atmosphere of 37 °C and 5% CO2. Sterilin-filtered leaf extracts were added to the culture media in microtiter plates. Five doses of bark extracts were used at final concentrations of 50, 100, 200, 300, and 400 µg/mL in culture medium. Untreated cells were considered used as negative controls and vinblastine sulfate and taxol treatment were used as the positive controls. After incubation of the culture medium for 2 days at 37 °C and 5% CO2, phosphate buffer saline (PBS) washes were performed to remove extract traces and the medium supplied was 12 mM MTT dissolved in PBS. Subsequently, 0.04 N HCl dissolved in isopropanol was mixed in each well, left to stand for 40 min, and the absorbance at 570 nm was determined by using a microplate reader (Thermo Fisher Scientific, Waltham, Massachusetts, USA). The percentage inhibition of antiproliferation activity was calculated in triplicate:
(§3) % Inhibition = (Abs.570 nm control—Abs.570 nm sample)/Abs.570 nm control × 100. Subsequently, IC50 values were obtained by plotting the percentage of cell viability against the extract concentration and expressed in µg/mL.

[3] = test system: MCF-7 cells (breast adenocarcinoma); experiment: MTT antiproliferative assay, MCF-7; type: cell-based; settings: 2 days incubation; for IC50: Homo sapiens, MCF7, 48 h, read-out: In vitro antiproliferative activity IC50, MCF-7
Description: (§4) Fresh bark (0.25 g) was dried at 35 °C until a constant weight was obtained. The samples were ground and then dissolved in 3 mL methanol (99%) for 1 h in the dark at 25 °C. Bark solutions were centrifuged for 5 min at 10,000 rpm (7000 × g) and the supernatant was obtained (~2.7 mL). The samples were passed through a 0.45 μm polytetrafluroethylene (PTFE) nylon filter and then stored at −80 °C. Analytical grade chemicals (Sigma Aldrich, Germany) were used in the bioassays. The cancer cell lines, including cervical adenocarcinoma (HeLa), breast adenocarcinoma (MCF-7), T-cell lymphoblast like (Jurkat), urinary bladder carcinoma (T24), and colon adenocarcinoma (HT-29), were obtained from the American Type Culture Collection (ATCC).
as §2, §3

[4] = test system: T24 cells (urinary bladder carcinoma); experiment: MTT antiproliferative assay, T24; type: cell-based; settings: 2 days incubation; for IC50: Homo sapiens, T-24, 48 h, read-out: In vitro antiproliferative activity IC50, T24
Description: as §4, §2, §3

[5] = test system: Jurkat cells (T-cell lymphoblast like); experiment: MTT antiproliferative assay, Jurkat; type: cell-based; settings: 2 days incubation; for IC50: Homo sapiens, Jurkat, 48 h, read-out: In vitro antiproliferative activity IC50, Jurkat
Description: as §4, §2, §3

[6] = test system: HeLa cells (cervical adenocarcinoma); experiment: MTT antiproliferative assay, HeLa; type: cell-based; settings: 2 days incubation; for IC50: Homo sapiens, HeLa, 48 h, read-out: In vitro antiproliferative activity IC50, HeLa
Description: as §4, §2, §3

cancer cells = experiment: Apoptotic cell population by flow cytometry (Annexin V); type: cell-based; settings: treatment at IC50, 24/48 h, versus untreated control
Description: Flow cytometry (FAC Scan, Becton Dickinson, Iowa, USA) was used to measure the apoptotic cell population. […] The cells were detached by using trypsin (0.25%) in Hank’s balanced salt solution (Thermo Fisher Scientific, Berlin, Germany). For staining the cells, the Annexin V apoptosis detection kit (Sigma, St. Louis, MO, USA) was used. Briefly, the cells were incubated in the dark at 37 °C for 15 min and washed with cold PBS, and the apoptotic populations were shown by the flow cytometer in quadrants: Lower left (viable cells), upper left (necrotic cells), lower right (early apoptotic cells), and upper right (late apoptotic cells).

[7] = test system: HT-29 cells (colon adenocarcinoma); experiment: MTT antiproliferative assay, HT-29; type: cell-based; settings: 2 days incubation; for IC50: Homo sapiens, HT-29, 48 h, read-out: In vitro antiproliferative activity IC50, HT-29
Description: as §4, §2, §3

[8] = test system: MCF-7, HeLa, Jurkat, T24, and HT-29 cells; experiment: MTT antiproliferative assay, cancer cell line panel; type: cell-based; settings: most cancer cells
Description: The samples were ground and then dissolved in 3 mL methanol (99%) for 1 h in the dark at 25 °C. Bark solutions were centrifuged for 5 min at 10,000 rpm (7000 × g) and the supernatant was obtained (~2.7 mL). The samples were passed through a 0.45 μm polytetrafluroethylene (PTFE) nylon filter and then stored at −80 °C. Analytical grade chemicals (Sigma Aldrich, Germany) were used in the bioassays. The cancer cell lines, including cervical adenocarcinoma (HeLa), breast adenocarcinoma (MCF-7), T-cell lymphoblast like (Jurkat), urinary bladder carcinoma (T24), and colon adenocarcinoma (HT-29), were obtained from the American Type Culture Collection (ATCC). […] The cells were grown in 75 cm^2 flasks in MEM supplemented with 10% FBS, 17.8 mM NaHCO3, 0.1 mM non-essential amino acids, and 1 mM sodium pyruvate. […] Sterilin-filtered leaf extracts were added to the culture media in microtiter plates. […] Untreated cells were considered used as negative controls and vinblastine sulfate and taxol treatment were used as the positive controls. After incubation of the culture medium for 2 days at 37 °C and 5% CO2, phosphate buffer saline (PBS) washes were performed to remove extract traces and the medium supplied was 12 mM MTT dissolved in PBS. Subsequently, 0.04 N HCl dissolved in isopropanol was mixed in each well, left to stand for 40 min, and the absorbance at 570 nm was determined by using a microplate reader (Thermo Fisher Scientific, Waltham, Massachusetts, USA). The percentage inhibition of antiproliferation activity was calculated in triplicate: % Inhibition = (Abs.570 nm control—Abs.570 nm sample)/Abs.570 nm control × 100. Subsequently, IC50 values were obtained by plotting the percentage of cell viability against the extract concentration and expressed in µg/mL.

Row | In vitro antiproliferative activity IC50, MCF-7 [3] | In vitro antiproliferative activity IC50, T24 [4] | In vitro antiproliferative activity IC50, Jurkat [5] | In vitro antiproliferative activity IC50, HeLa [6] | In vitro antiproliferative activity IC50, HT-29 [7] | IC50 [3] | IC50 [4] | IC50 [5] | IC50 [6] | IC50 [7] | Compound | In vitro antiproliferative activity IC50, HEK-293 (HEK-293 cells) | Antiproliferative activity against cancer cells (in words) [8] | IC50 (HEK-293 cells) | further results
1 |  |  |  |  |  |  |  |  |  |  | Cc1cc(C(C)(C)C)c(O)c(C(C)(C)C)c1 [BHT, butylated hydroxytoluene] |  |  |  | DPPH Free Radical Scavenging Activity (IC50) [1]: 2.9 ± 0.1c µg mL^−1; β-Carotene-Linoleic Acid Assay (IC50) [2]: 3.2 ± 0.1c µg mL^−1
2 | 17.64 ± 1.8 µg/mL | 183.28 ± 4.3 µg/mL | 38.16 ± 0.7 µg/mL | 36.48 ± 1.2 µg/mL | 96.16 ± 1.5 µg/mL |  |  |  |  |  | O.Oc1cc(O)c2c(c1)O[C@H](c1ccc(O)c(O)c1)[C@@H](O)C2 [Catechin] | ˃400 µg/mL | notable antiproliferative activity against most cancer cells |  | Accumulation of necrotic, early and late apoptotic cells (cancer cells): high accumulation of early and late apoptotic cells
3 | 43.85 ± 1.3 µg/mL | 227.26 ± 5.1 µg/mL | 39.11 ± 2.3 µg/mL | 51.73 ± 3.5 µg/mL | 126.26 ± 4.4 µg/mL |  |  |  |  |  | COc1cc(/C=C/C(=O)O)ccc1O [Ferulic acid] | ˃400 µg/mL | notable antiproliferative activity against most cancer cells |  | 
4 |  |  |  |  |  | 0.09 ± 0.009 µg/mL (≈ 0.105 µM) |  |  |  |  | CC(=O)O[C@H]1C(=O)[C@@]2(C)[C@H]([C@H](OC(=O)c3ccccc3)[C@]3(O)C[C@H](OC(=O)[C@H](O)[C@@H](NC(=O)c4ccccc4)c4ccccc4)C(C)=C1C3(C)C)[C@]1(OC(C)=O)CO[C@@H]1C[C@@H]2O [Taxol] |  |  |  | 
5 |  |  |  |  |  |  | 65.7 ± 2.1 µg/mL | 0.1 ± 0.09 µg/mL | 2.7 ± 0.06 µg/mL | 21 ± 0.1 µg/mL | CC[C@]1(O)C[C@@H]2CN(CCc3c([nH]c4ccccc34)[C@@](C(=O)OC)(c3cc4c(cc3OC)N(C)[C@H]3[C@@](O)(C(=O)OC)[C@H](OC(C)=O)[C@]5(CC)C=CCN6CC[C@]43[C@@H]65)C2)C1 [Vinblastine sulfate] |  |  | 50.1 ± 2.3 µg/mL | 
6 |  |  |  |  |  | 4.63 ± 1.8 µg/mL (≈ 5.61 µM) | 89.8 ± 2.5 µg/mL (≈ 109 µM) | 0.4 ± 0.05 µg/mL (≈ 0.485 µM) | 8.5 ± 0.1 µg/mL (≈ 10.3 µM) | 47.3 ± 0.2 µg/mL (≈ 57.3 µM) | CC[C@]1(O)C[C@H]2CN(CCc3c([nH]c4ccccc34)[C@@](C(=O)OC)(c3cc4c(cc3OC)N(C=O)[C@H]3[C@@](O)(C(=O)OC)[C@H](OC(C)=O)[C@]5(CC)C=CCN6CC[C@]43[C@@H]65)C2)C1 [Vincristine] |  |  | 78.3 ± 1.6 µg/mL (≈ 94.9 µM) | 
7 | 58.11 ± 0.9 µg/mL | 176.12 ± 3.6 µg/mL | 63.09 ± 1.4 µg/mL | 65.31 ± 2.4 µg/mL | 113.15 ± 2.9 µg/mL |  |  |  |  |  | Hydroxycaffeic acid | ˃400 µg/mL | notable antiproliferative activity against most cancer cells |  | 

Row | Compound | In vitro antiproliferative activity IC50, MCF-7 [3] | In vitro antiproliferative activity IC50, T24 [4] | In vitro antiproliferative activity IC50, Jurkat [5] | In vitro antiproliferative activity IC50, HeLa [6] | In vitro antiproliferative activity IC50, HT-29 [7] | IC50 [3] | IC50 [4] | IC50 [5] | IC50 [6] | IC50 [7] | In vitro antiproliferative activity IC50, HEK-293 (HEK-293 cells) | Antiproliferative activity against cancer cells (in words) [8] | IC50 (HEK-293 cells) | further results
8 | O=C(O)c1ccc(O)c(O)c1 [Protocatechuic acid, 3,4-dihydroxybenzoic acid] |  |  |  |  |  | 19 ± 2.1 µg/mL (≈ 123 µM) | 176 ± 2.1 µg/mL (≈ 1140 µM) | 47.4 ± 2.1 µg/mL (≈ 307 µM) | 39.1 ± 2.3 µg/mL (≈ 254 µM) | 95.3 ± 3.3 µg/mL (≈ 619 µM) |  | notable antiproliferative activity against most cancer cells | > 400 µg/mL | 
